# Reference: publication PMC11324517 (Nature, 2024)
# Substitutions are numbered along the chain they refer to. Several values for one entry are separate records, joined by “and”; a condition that tells them apart may be missing. Identical values can stand only once. Entries after “also recorded” stand apart in the source; their conditions may differ. Like-named read-outs stand apart in the source and are kept apart here.
# Key:
# ∆-hDAT D385N = ∆-hDAT D385N (Homo sapiens, UniProt Q01959, D385N/I248Y); details: D385N versus ∆-hDAT
# Experimental: (§1) Replicates containing 10 µM of GBR12909 were used to measure background. […] Uptake was quenched by adding 50 µl of ice-cold inhibition buffer.
# (§2) Specific counts were obtained by subtracting background counts (averaged from technical triplicates) from total counts. […] Data were collected from three independent experiments (n = 3 biological replicates starting from transduction), each performed with three technical replicates.
# ∆-hDAT I390L = ∆-hDAT I390L (Homo sapiens, UniProt Q01959, I248Y/I390L); details: [3H]dopamine uptake
# Experimental: as §1, §2
# ∆-hDAT V364I = ∆-hDAT V364I (Homo sapiens, UniProt Q01959, I248Y/V364I); details: [3H]dopamine uptake, Figure 2d raw data
# Experimental: as §1, §2
# ∆-hDAT V364I/I390L = ∆-hDAT V364I/I390L (Homo sapiens, UniProt Q01959, I248Y/I390L/V364I); details: MRS7292 10 µM; [3H]dopamine uptake, Figure 2d raw data
# Experimental: as §1, §2
# ∆-hDAT Y394F = ∆-hDAT Y394F (Homo sapiens, UniProt Q01959, I248Y/Y394F); details: for Y394F total (raw [3H]dopamine uptake counts): Extended Data Fig 7c source data, replicates 1-3
# Experimental: as §1, §2
# ∆-hDAT = ∆-hDAT (Homo sapiens, UniProt Q01959, I248Y); details: 10 µM MRS7292, [3H]DA 0.185 uM, background not subtracted
# Experimental: (§3) HEK293 GnTI^− cells were transduced with Δ-hDAT and full-length hDAT P2 viruses, propagated in SF9 cells using standard methods as described in ‘Protein expression and purification’, at a cell density of 2.5 – 3.0 × 10^6 cells per ml, followed by incubation at 37 °C for 6 h. After 6 h, sodium butyrate was added to a final concentration of 10 mM, and the cells were transferred to 30 °C with 8% CO2 for 6 h. The transduced cells were seeded into 96-well poly-D-lysine coated Isoplates (Perkin Elmer) at a density of 100,000 cells per well. The plates were then incubated at 30 °C for 12–16 h before the uptake assay was initiated. The cells were initially washed with 37 °C uptake assay buffer composed of 25 mM HEPES pH 7.4, 120 mM NaCl, 5 mM KCl, 1.2 mM CaCl2, 1.2 mM MgSO4, 5 mM D-glucose, 1 mM ascorbic acid, and 1 µM Ro 41-0960, followed by incubation in 50 µl of the same buffer for 10 min. Replicates with 10 µM of GBR12909 in the uptake assay buffer were used to measure background. […] The uptake reaction was stopped by adding 100 µl of chilled inhibition buffer, uptake assay buffer supplemented with 2.5 µM GBR12909. Two consecutive washes with 100 µl of inhibition buffer were carried out, followed by resuspension of cells in 100 µl of 1% Triton X-100. Finally, 100 µl of liquid scintillation cocktail was added to each well and [^3H] counts were measured using a MicroBeta2 (Perkin Elmer). Background counts from three replicates were averaged and subtracted from total counts.
# ∆-hDAT D385A = ∆-hDAT D385A (Homo sapiens, UniProt Q01959, D385A/I248Y); details: MRS7292 30 µM; [3H]dopamine uptake, Figure 2d raw data
# Experimental: as §1, §2
# full-length hDAT = full-length hDAT (Homo sapiens, UniProt Q01959); details: background not subtracted
# Experimental: as §3
# ∆-hDAT W84C = target: T1, ∆-hDAT W84C (Homo sapiens, UniProt Q01959, I248Y/W84C); details: for W84C total (raw [3H]dopamine uptake counts): Extended Data Fig 7c source data, replicates 1-3
# T1 sequence (Q01959 57-620 W84C/I248Y limits assumed): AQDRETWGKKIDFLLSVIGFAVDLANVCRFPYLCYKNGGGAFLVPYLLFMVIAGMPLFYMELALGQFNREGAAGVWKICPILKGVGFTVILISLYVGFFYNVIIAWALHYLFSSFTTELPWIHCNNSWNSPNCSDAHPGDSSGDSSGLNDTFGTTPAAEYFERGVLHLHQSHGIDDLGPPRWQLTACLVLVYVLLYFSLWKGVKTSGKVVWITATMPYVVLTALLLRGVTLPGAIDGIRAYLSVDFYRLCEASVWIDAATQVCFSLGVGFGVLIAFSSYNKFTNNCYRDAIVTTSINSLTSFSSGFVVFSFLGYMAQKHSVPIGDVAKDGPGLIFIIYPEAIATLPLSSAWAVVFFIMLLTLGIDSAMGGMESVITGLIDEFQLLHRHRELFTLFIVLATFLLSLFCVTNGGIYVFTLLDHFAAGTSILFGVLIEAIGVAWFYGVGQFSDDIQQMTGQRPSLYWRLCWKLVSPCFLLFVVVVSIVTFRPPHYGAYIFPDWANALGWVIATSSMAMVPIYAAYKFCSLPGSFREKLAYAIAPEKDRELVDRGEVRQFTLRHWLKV
# Experimental: as §1, §2
# ∆-hDAT W84A = target: T2, ∆-hDAT W84A (Homo sapiens, UniProt Q01959, I248Y/W84A); details: for W84A total (raw [3H]dopamine uptake counts): Extended Data Fig 7c source data, replicates 1-3
# T2 sequence (Q01959 57-620 W84A/I248Y limits assumed): T1 sequence (Q01959 57-620 W84C/I248Y limits assumed) with C28A
# Experimental: as §1, §2
# Chain of ∆-hDAT V364I/I390L (Q01959 57-620 I248Y/V364I/I390L limits assumed): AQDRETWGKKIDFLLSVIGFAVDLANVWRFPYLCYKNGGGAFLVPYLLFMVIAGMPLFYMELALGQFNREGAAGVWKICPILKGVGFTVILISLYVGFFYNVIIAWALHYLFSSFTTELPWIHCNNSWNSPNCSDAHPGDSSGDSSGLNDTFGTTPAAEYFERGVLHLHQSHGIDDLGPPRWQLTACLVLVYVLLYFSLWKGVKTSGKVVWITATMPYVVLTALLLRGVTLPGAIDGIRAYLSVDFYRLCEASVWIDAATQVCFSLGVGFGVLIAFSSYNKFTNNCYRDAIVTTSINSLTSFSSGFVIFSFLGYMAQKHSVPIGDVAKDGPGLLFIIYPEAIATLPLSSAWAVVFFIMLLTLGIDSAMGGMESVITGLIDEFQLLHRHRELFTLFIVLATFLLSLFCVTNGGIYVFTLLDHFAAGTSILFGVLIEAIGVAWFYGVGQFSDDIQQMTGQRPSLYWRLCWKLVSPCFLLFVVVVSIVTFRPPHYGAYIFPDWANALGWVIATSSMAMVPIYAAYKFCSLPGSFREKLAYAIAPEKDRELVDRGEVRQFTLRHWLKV
# Chain of ∆-hDAT D385A (Q01959 57-620 I248Y/D385A limits assumed): as the sequence (Q01959 57-620 I248Y/V364I/I390L limits assumed) above, with I308V, D329A, L334I counted along it
# Chain of ∆-hDAT Y394F (Q01959 57-620 I248Y/Y394F limits assumed): as the sequence (Q01959 57-620 I248Y/V364I/I390L limits assumed) above, with I308V, L334I, Y338F counted along it
# Chain of ∆-hDAT (Q01959 57-620 I248Y limits assumed): as the sequence (Q01959 57-620 I248Y/V364I/I390L limits assumed) above, with I308V, L334I counted along it
# Chain of ∆-hDAT D385N (Q01959 57-620 I248Y/D385N limits assumed): as the sequence (Q01959 57-620 I248Y/V364I/I390L limits assumed) above, with I308V, D329N, L334I counted along it
# Chain of full-length hDAT (Q01959 whole entry): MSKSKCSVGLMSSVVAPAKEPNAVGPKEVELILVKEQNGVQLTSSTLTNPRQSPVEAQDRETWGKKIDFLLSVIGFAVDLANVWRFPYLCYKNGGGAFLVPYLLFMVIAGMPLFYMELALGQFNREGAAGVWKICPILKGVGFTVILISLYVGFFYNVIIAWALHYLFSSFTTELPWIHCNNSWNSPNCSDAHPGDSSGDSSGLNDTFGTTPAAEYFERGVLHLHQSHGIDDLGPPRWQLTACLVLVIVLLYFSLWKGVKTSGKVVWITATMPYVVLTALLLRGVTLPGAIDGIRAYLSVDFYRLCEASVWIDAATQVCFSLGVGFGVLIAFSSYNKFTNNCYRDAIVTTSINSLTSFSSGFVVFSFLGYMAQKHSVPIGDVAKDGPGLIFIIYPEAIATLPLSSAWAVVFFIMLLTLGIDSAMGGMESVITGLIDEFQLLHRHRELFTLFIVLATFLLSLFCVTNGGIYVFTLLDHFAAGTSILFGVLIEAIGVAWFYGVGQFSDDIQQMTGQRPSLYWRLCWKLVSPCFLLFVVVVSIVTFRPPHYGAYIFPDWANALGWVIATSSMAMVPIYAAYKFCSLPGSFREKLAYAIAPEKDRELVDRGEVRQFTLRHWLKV
# Chain of ∆-hDAT V364I (Q01959 57-620 I248Y/V364I limits assumed): as the sequence (Q01959 57-620 I248Y/V364I/I390L limits assumed) above, with L334I counted along it
# Chain of ∆-hDAT I390L (Q01959 57-620 I248Y/I390L limits assumed): as the sequence (Q01959 57-620 I248Y/V364I/I390L limits assumed) above, with I308V counted along it
smiles,measurement,setting,value
CNc1nc(C#Cc2ccc(Cl)s2)nc2c1ncn2[C@H]1[C@H](O)[C@H](O)[C@]2(C(=O)OC)C[C@H]12 [MRS7292],effect of mutation on potency of MRS7292 (inhibition of dopamine uptake),∆-hDAT D385N,retained potency; also recorded: potency of MRS7292 was maintained; also recorded: little effect
same,change in IC50 of MRS7292 versus ∆-hDAT,∆-hDAT I390L; I390L mutant,modest increase in the IC50 value; also recorded: increased IC50
same,I390L total counts,"∆-hDAT I390L; MRS7292 30 µM, Figure 2d raw data",109 counts and 108 counts and 83 counts and 89 counts and 68 counts and 75 counts and 87 counts and 88 counts
same,V364I total,∆-hDAT V364I; MRS7292 1e-6 µM,5751 and 5593 and 5760 and 5223 and 5698 and 5483 and 5457 and 5433
same,V364I total,∆-hDAT V364I; MRS7292 10 µM,65 and 56 and 61 and 57 and 59 and 73 and 84 and 89
same,V364I total,∆-hDAT V364I; MRS7292 30 µM,24 and 25 and 29 and 37 and 23 and 36 and 26
same,I390L-V364I total,∆-hDAT V364I/I390L,85 and 69 and 75 and 62 and 48 and 60 and 76 and 66
same,Y394F total (raw [3H]dopamine uptake counts),∆-hDAT Y394F; MRS7292 1e-6 µM,1962 and 2141 and 2109 and 2218 and 1876 and 2149 and 2315 and 2380 and 2515
same,Y394F total (raw [3H]dopamine uptake counts),∆-hDAT Y394F; MRS7292 0.041 µM,2021 and 1947 and 2451 and 1672 and 1475 and 1990 and 5167 and 4746
same,Y394F total (raw [3H]dopamine uptake counts),∆-hDAT Y394F; MRS7292 0.123 µM,2135 and 2187 and 2249 and 1538 and 1496 and 1463 and 3048 and 2825 and 2648
same,Y394F total (raw [3H]dopamine uptake counts),∆-hDAT Y394F; MRS7292 0.37 µM,2258 and 2255 and 2215 and 1771 and 1434 and 1467 and 2327 and 2753 and 2672
same,Y394F total (raw [3H]dopamine uptake counts),∆-hDAT Y394F; MRS7292 1.11 µM,1683 and 2000 and 1961 and 1802 and 1518 and 1933 and 2789 and 2557 and 2651
same,Y394F total (raw [3H]dopamine uptake counts),∆-hDAT Y394F; MRS7292 3.33 µM,2058 and 2080 and 2545 and 1969 and 2086 and 2231 and 2762 and 2184 and 1914
same,Y394F total (raw [3H]dopamine uptake counts),∆-hDAT Y394F; MRS7292 10 µM,2191 and 2728 and 2379 and 1871 and 1698 and 1883 and 2721 and 2825 and 2576
same,Y394F total (raw [3H]dopamine uptake counts),∆-hDAT Y394F; MRS7292 30 µM,1926 and 2280 and 2146 and 1689 and 1287 and 1345 and 2421 and 2231 and 2505
same,effect of mutation on potency of MRS7292 (inhibition of dopamine uptake),∆-hDAT Y394F; Y394F versus ∆-hDAT,diminishes the potency; also recorded: severe loss of MRS7292 activity
same,"[3H]DA Uptake - Δ-hDAT, total counts - 10 µM MRS7292",∆-hDAT,20 cpm and 17 cpm and 15 cpm and 19 cpm and 12 cpm and 22 cpm
same,D385A total,∆-hDAT D385A,286 and 316 and 337 and 362 and 408 and 403 and 257 and 320
same,"[3H]DA Uptake - Full length hDAT, total counts - 10 µM MRS7292","full-length hDAT; 10 µM MRS7292, [3H]DA 0.0068 uM",10 cpm and 11 cpm and 8 cpm and 14 cpm and 9 cpm and 16 cpm
same,"[3H]DA Uptake - Full length hDAT, total counts - 10 µM MRS7292","full-length hDAT; 10 µM MRS7292, [3H]DA 0.061 uM",13 cpm and 18 cpm and 14 cpm and 10 cpm and 16 cpm and 15 cpm and 19 cpm and 17 cpm
same,"[3H]DA Uptake - Full length hDAT, total counts - 10 µM MRS7292","full-length hDAT; 10 µM MRS7292, [3H]DA 0.185 uM",25 cpm and 15 cpm and 20 cpm and 27 cpm and 21 cpm and 23 cpm and 22 cpm
same,"[3H]DA Uptake - Full length hDAT, total counts - 10 µM MRS7292","full-length hDAT; 10 µM MRS7292, [3H]DA 1.66 uM",65 cpm and 83 cpm and 90 cpm and 75 cpm and 88 cpm and 55 cpm and 51 cpm and 66 cpm
same,W84C total (raw [3H]dopamine uptake counts),∆-hDAT W84C; MRS7292 1e-6 µM,4594 and 4467 and 4710 and 3850 and 4193 and 4029 and 4760 and 5939 and 5408
same,W84C total (raw [3H]dopamine uptake counts),∆-hDAT W84C; MRS7292 0.041 µM,5542 and 4901 and 4879 and 3714 and 3791 and 3749 and 5161 and 5312 and 5150
same,W84C total (raw [3H]dopamine uptake counts),∆-hDAT W84C; MRS7292 0.123 µM,5015 and 4917 and 5068 and 3749 and 3676 and 3489 and 6082 and 6141 and 5806
same,W84C total (raw [3H]dopamine uptake counts),∆-hDAT W84C; MRS7292 0.37 µM,4864 and 5475 and 5004 and 3395 and 4058 and 4217 and 6996 and 6040 and 6103
same,W84C total (raw [3H]dopamine uptake counts),∆-hDAT W84C; MRS7292 1.11 µM,4560 and 4192 and 4804 and 2868 and 3597 and 3884 and 6157 and 6005
same,W84C total (raw [3H]dopamine uptake counts),∆-hDAT W84C; MRS7292 3.33 µM,5290 and 5001 and 5041 and 3941 and 4001 and 3991 and 5807 and 6342 and 6018
same,W84C total (raw [3H]dopamine uptake counts),∆-hDAT W84C; MRS7292 10 µM,5439 and 5725 and 4868 and 3830 and 4200 and 4303 and 5849 and 6416 and 6207
same,W84C total (raw [3H]dopamine uptake counts),∆-hDAT W84C; MRS7292 30 µM,4716 and 4588 and 4467 and 3448 and 3565 and 3579 and 4954 and 3057 and 4610
same,effect of mutation on potency of MRS7292 (inhibition of dopamine uptake),∆-hDAT W84C; W84C versus ∆-hDAT,severely compromises the potency; also recorded: severe loss of MRS7292 activity
same,W84A total (raw [3H]dopamine uptake counts),∆-hDAT W84A; MRS7292 1e-6 µM,4895 and 4792 and 4802 and 4600 and 4953 and 4373 and 5070 and 4982 and 5054
same,W84A total (raw [3H]dopamine uptake counts),∆-hDAT W84A; MRS7292 0.041 µM,4749 and 4230 and 4559 and 4747 and 4675 and 5103 and 5266 and 5201 and 5101
same,W84A total (raw [3H]dopamine uptake counts),∆-hDAT W84A; MRS7292 0.123 µM,4930 and 5121 and 4987 and 4751 and 4624 and 4813 and 5010 and 4838 and 4937
same,W84A total (raw [3H]dopamine uptake counts),∆-hDAT W84A; MRS7292 0.37 µM,4894 and 4668 and 4952 and 4517 and 4587 and 4491 and 5700 and 5202 and 4820
same,W84A total (raw [3H]dopamine uptake counts),∆-hDAT W84A; MRS7292 1.11 µM,4984 and 5198 and 4980 and 4949 and 4430 and 4563 and 5130 and 4679 and 4795
same,W84A total (raw [3H]dopamine uptake counts),∆-hDAT W84A; MRS7292 3.33 µM,4301 and 4523 and 4569 and 4697 and 4581 and 4993 and 4757 and 5251 and 4774
same,W84A total (raw [3H]dopamine uptake counts),∆-hDAT W84A; MRS7292 10 µM,4768 and 4277 and 4629 and 4852 and 4916 and 4947 and 5164 and 4713 and 5124
same,W84A total (raw [3H]dopamine uptake counts),∆-hDAT W84A; MRS7292 30 µM,3395 and 3824 and 4400 and 4392 and 4159 and 3949 and 4924 and 4868 and 4552
same,effect of mutation on potency of MRS7292 (inhibition of dopamine uptake),∆-hDAT W84A; W84A versus ∆-hDAT,severely compromises the potency; also recorded: severe loss of MRS7292 activity
